Here are results for 20 compounds from patent US20080269241A1, “BICYCLIC AMINOPROPYL TETRAHYDRO-PYRAZOLO-PYRIDINE MODULATORS OF CATHEPSIN S” (priority 2007, published 2008).

In this assay the target is T1, human cathepsin S (CatS) (Homo sapiens, UniProt P25774).
T1 construct: made in house; host or cells: baculovirus system (insect cells)
Description: Recombinant human cathepsin S (CatS) fluorogenic substrate inhibition assay. It is filed as biochemical. As to the method: Recombinant human cathepsin S (CatS) was expressed in the baculovirus system and purified in one step with a thiopropyl-sepharose column. […] The assay is run in 150 mM sodium acetate pH 5.0 containing 1.5 mM DTT and 150 mM NaCl. […] Measurements are taken every min for 20 min. The rate is calculated from the slope of the increase in fluorescence and the percent inhibition is calculated from this.

The mark [1] stands for this setting: recombinant human CatS, 10 μM Z-Valine-Valine-Arginine-AMC, pH 5.0, average of results obtained, read-out: CatS IC50.

Each structure is given as a SMILES string. Like-named read-outs stand apart in the source and are kept apart here.

T1 sequence (P25774 115-331): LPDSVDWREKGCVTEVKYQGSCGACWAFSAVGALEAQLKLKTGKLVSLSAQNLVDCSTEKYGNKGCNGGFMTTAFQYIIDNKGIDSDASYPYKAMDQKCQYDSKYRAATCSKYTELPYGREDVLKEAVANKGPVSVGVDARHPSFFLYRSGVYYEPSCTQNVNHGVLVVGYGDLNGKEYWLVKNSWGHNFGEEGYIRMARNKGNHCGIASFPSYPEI

`CS(=O)(=O)N1CCc2c(c(-c3ccc(C(F)(F)F)c(CNC(=O)c4ccc(N5CCOCC5)nc4)c3)nn2CC(O)CN2CCC(N3CCCC3=O)CC2)C1` (centres unmarked) [Example 132, N-[5-(1-{2-Hydroxy-3-[4-(2-oxo-pyrrolidin-1-yl)-piperidin-1-yl]-propyl}-5-methanesulfonyl-4,5,6,7-tetrahydro-1H-pyrazolo[4,3-c]pyridin-3-yl)-2-trifluoromethyl-benzyl]-6-morpholin-4-yl-nicotinamide]: the IC50 under setting [1] is 340 nM.

With `Cn1cncc1C(=O)NCc1cc(-c2nn(CC(O)CN3CCC(N4CCCC4=O)CC3)c3c2CN(S(C)(=O)=O)CC3)ccc1C(F)(F)F` (centres unmarked) [Example 133, 3-Methyl-3H-imidazole-4-carboxylic acid 5-(1-{2-hydroxy-3-[4-(2-oxo-pyrrolidin-1-yl)-piperidin-1-yl]-propyl}-5-methanesulfonyl-4,5,6,7-tetrahydro-1H-pyrazolo[4,3-c]pyridin-3-yl)-2-trifluoromethyl-benzylamide], the 50% inhibitory concentration (IC50) under setting [1] stood at 380 nM.

Regarding `CS(=O)(=O)N1CCc2c(c(-c3ccc(C(F)(F)F)c(CNC(=O)c4cncs4)c3)nn2CC(O)CN2CCC(N3CCCC3=O)CC2)C1` (centres unmarked) [Example 134, Thiazole-5-carboxylic acid 5-(1-{2-hydroxy-3-[4-(2-oxo-pyrrolidin-1-yl)-piperidin-1-yl]-propyl}-5-methanesulfonyl-4,5,6,7-tetrahydro-1H-pyrazolo[4,3-c]pyridin-3-yl)-2-trifluoromethyl-benzylamide], the half-maximal inhibitory concentration (IC50) under setting [1] amounted to 380 nM.

In the case of `CS(=O)(=O)N1CCc2c(c(-c3ccc(C(F)(F)F)c(CNC(=O)CN4CCCCC4)c3)nn2CCCN2CCC(N3CCCC3=O)CC2)C1` [Example 135, N-[5-(5-Methanesulfonyl-1-{3-[4-(2-oxo-pyrrolidin-1-yl)-piperidin-1-yl]-propyl}-4,5,6,7-tetrahydro-1H-pyrazolo[4,3-c]pyridin-3-yl)-2-trifluoromethyl-benzyl]-2-piperidin-1-yl-acetamide], under setting [1], the concentration for half-maximal inhibition (IC50) came to 410 nM.

For `Cc1csc(C(=O)NCc2cc(-c3nn(CC(O)CN4CCC(N5CCCC5=O)CC4)c4c3CN(S(C)(=O)=O)CC4)ccc2C(F)(F)F)c1Cl` (centres unmarked) [Example 136, 3-Chloro-4-methyl-thiophene-2-carboxylic acid 5-(1-{2-hydroxy-3-[4-(2-oxo-pyrrolidin-1-yl)-piperidin-1-yl]-propyl}-5-methanesulfonyl-4,5,6,7-tetrahydro-1H-pyrazolo[4,3-c]pyridin-3-yl)-2-trifluoromethyl-benzylamide], the IC50 under setting [1] worked out at 410 nM.

Turning to `Cc1ncsc1C(=O)NCc1cc(-c2nn(CC(O)CN3CCC(N4CCCC4=O)CC3)c3c2CN(S(C)(=O)=O)CC3)ccc1C(F)(F)F` (centres unmarked) [Example 137, 4-Methyl-thiazole-5-carboxylic acid 5-(1-{2-hydroxy-3-[4-(2-oxo-pyrrolidin-1-yl)-piperidin-1-yl]-propyl}-5-methanesulfonyl-4,5,6,7-tetrahydro-1H-pyrazolo[4,3-c]pyridin-3-yl)-2-trifluoromethyl-benzylamide], under setting [1], the IC50 was 410 nM.

Regarding `CCSC(=O)NCc1cc(-c2nn(CCCN3CCC(N4CCCC4=O)CC3)c3c2CN(S(C)(=O)=O)CC3)ccc1C(F)(F)F` [Example 138, [5-(5-Methanesulfonyl-1-{3-[4-(2-oxo-pyrrolidin-1-yl)-piperidin-1-yl]-propyl}-4,5,6,7-tetrahydro-1H-pyrazolo[4,3-c]pyridin-3-yl)-2-trifluoromethyl-benzyl]-thiocarbamic acid S-ethyl ester], the IC50 under setting [1] was 430 nM.

With `CS(=O)(=O)N1CCc2c(c(-c3ccc(C(F)(F)F)c(CNC(=O)c4ccc5nccnc5c4)c3)nn2CC(O)CN2CCC(N3CCCC3=O)CC2)C1` (centres unmarked) [Example 139, Quinoxaline-6-carboxylic acid 5-(1-{2-hydroxy-3-[4-(2-oxo-pyrrolidin-1-yl)-piperidin-1-yl]-propyl}-5-methanesulfonyl-4,5,6,7-tetrahydro-1H-pyrazolo[4,3-c]pyridin-3-yl)-2-trifluoromethyl-benzylamide], under setting [1], the IC50 was found to be 490 nM.

As for `CC(=O)NCc1cc(-c2nn(CC(O)CN3CCC(n4c(=O)n(C)c5ccc(N(C)C)nc54)CC3)c3c2CN(S(C)(=O)=O)CC3)ccc1C(F)(F)F` (centres unmarked) [Example 143, N-[5-(1-{3-[4-(5-Dimethylamino-1-methyl-2-oxo-1,2-dihydro-imidazo[4,5-b]pyridin-3-yl)-piperidin-1-yl]-2-hydroxy-propyl}-5-methanesulfonyl-4,5,6,7-tetrahydro-1H-pyrazolo[4,3-c]pyridin-3-yl)-2-trifluoromethyl-benzyl]-acetamide], the IC50 under setting [1] is 100 nM.

As to `CN(C)C(=O)NCc1cc(-c2nn(CC(O)CN3CCC(n4c(=O)n(C)c5ccc(N(C)C)nc54)CC3)c3c2CN(S(C)(=O)=O)CC3)ccc1C(F)(F)F` (centres unmarked) [Example 147, 2-Dimethylamino-N-[5-(1-{3-[4-(5-Dimethylamino-1-methyl-2-oxo-1,2-dihydro-imidazo[4,5-b]pyridin-3-yl)-piperidin-1-yl]-2-hydroxy-propyl}-5-methanesulfonyl-4,5,6,7-tetrahydro-1H-pyrazolo[4,3-c]pyridin-3-yl)-2-trifluoromethyl-benzyl]-1,1-dimethyl-urea], the IC50 worked out at 140 nM.

As for `CN(C)c1ccc2c(n1)n(C1CCN(CC(O)Cn3nc(-c4ccc(C(F)(F)F)c(CNC(=O)CO)c4)c4c3CCN(S(C)(=O)=O)C4)CC1)c(=O)n2C` (centres unmarked) [Example 152, 2-Hydroxy-N-[5-(1-{3-[4-(5-Dimethylamino-1-methyl-2-oxo-1,2-dihydro-imidazo[4,5-b]pyridin-3-yl)-piperidin-1-yl]-2-hydroxy-propyl}-5-methanesulfonyl-4,5,6,7-tetrahydro-1H-pyrazolo[4,3-c]pyridin-3-yl)-2-trifluoromethyl-benzyl]-acetamide], the concentration for half-maximal inhibition (IC50) under setting [1] was 250 nM.

As to `CS(=O)(=O)N1CCc2c(c(-c3ccc(C(F)(F)F)c(CNC(=O)CN4CCS(=O)(=O)CC4)c3)nn2CCCN2CCC(N3CCCC3=O)CC2)C1` [Example 162, 2-(1,1-Dioxo-1λ^6-thiomorpholin-4-yl)-N-[5-(5-methanesulfonyl-1-{3-[4-(2-oxo-pyrrolidin-1-yl)-piperidin-1-yl]-propyl}-4,5,6,7-tetrahydro-1H-pyrazolo[4,3-c]pyridin-3-yl)-2-trifluoromethyl-benzyl]-acetamide], the 50% inhibitory concentration (IC50) under setting [1] turned out to be 380 nM.

Consider `CS(=O)(=O)N1CCc2c(c(-c3ccc(C(F)(F)F)c(CNc4nc5ccccc5[nH]4)c3)nn2CC(O)CN2CCC(N3CCCC3=O)CC2)C1` (centres unmarked) [Example 175, 1-{1-[3-(3-{3-[(1H-Benzoimidazol-2-ylamino)-methyl]-4-trifluoromethyl-phenyl}-5-methanesulfonyl-4,5,6,7-tetrahydro-pyrazolo[4,3-c]pyridin-1-yl)-2-hydroxy-propyl]-piperidin-4-yl}-pyrrolidin-2-one], for which the IC50 under setting [1] came out at 4150 nM.

`CS(=O)(=O)N1CCc2c(c(-c3ccc(C(F)(F)F)c(Cn4cnnn4)c3)nn2CCCN2CCC(N3CCCC3=O)CC2)C1` [Example 176, 1-(1-{3-[5-Methanesulfonyl-3-(3-tetrazol-1-ylmethyl-4-trifluoromethyl-phenyl)-4,5,6,7-tetrahydro-pyrazolo[4,3-c]pyridin-1-yl]-propyl}-piperidin-4-yl)-pyrrolidin-2-one]: the IC50 under setting [1] was found to be 1320 nM.

Turning to `Cc1coc(NCc2cc(-c3nn(CCCN4CCC(N5CCCC5=O)CC4)c4c3CN(S(C)(=O)=O)CC4)ccc2C(F)(F)F)n1` [Example 177, 1-{1-[3-(5-Methanesulfonyl-3-{3-[(4-methyl-oxazol-2-ylamino)-methyl]-4-trifluoromethyl-phenyl}-4,5,6,7-tetrahydro-pyrazolo[4,3-c]pyridin-1-yl)-propyl]-piperidin-4-yl}-pyrrolidin-2-one], the half-maximal inhibitory concentration (IC50) under setting [1] turned out to be 1660 nM.

As to `CS(=O)(=O)N1CCc2c(c(-c3ccc(C(F)(F)F)c(CNC=O)c3)nn2CC(O)CN2CCC(N3CCCC3=O)CC2)C1` (centres unmarked) [Example 178, N-[5-(1-{2-Hydroxy-3-[4-(2-oxo-pyrrolidin-1-yl)-piperidin-1-yl]-propyl}-5-methanesulfonyl-4,5,6,7-tetrahydro-1H-pyrazolo[4,3-c]pyridin-3-yl)-2-trifluoromethyl-benzyl]-formamide], the 50% inhibitory concentration (IC50) under setting [1] was found to be 1650 nM.

On to `CS(=O)(=O)N1CCc2c(c(-c3ccc(C(F)(F)F)c(CNCCN4CCCCC4)c3)nn2CC(O)CN2CCC(N3CCCC3=O)CC2)C1` (centres unmarked) [Example 179, 1-{1-[2-Hydroxy-3-(5-methanesulfonyl-3-{3-[(2-piperidin-1-yl-ethylamino)-methyl]-4-trifluoromethyl-phenyl}-4,5,6,7-tetrahydro-pyrazolo[4,3-c]pyridin-1-yl)-propyl]-piperidin-4-yl}-pyrrolidin-2-one], for which the IC50 under setting [1] was determined as 6250 nM.

On to `CN1CCN(CC(=O)NCc2cc(-c3nn(CCCN4CCC(N5CCCC5=O)CC4)c4c3CN(S(C)(=O)=O)CC4)ccc2C(F)(F)F)CC1` [Example 180, N-[5-(5-Methanesulfonyl-1-{3-[4-(2-oxo-pyrrolidin-1-yl)-piperidin-1-yl]-propyl}-4,5,6,7-tetrahydro-1H-pyrazolo[4,3-c]pyridin-3-yl)-2-trifluoromethyl-benzyl]-2-(4-methyl-piperazin-1-yl)-acetamide], for which the IC50 under setting [1] was determined as 3730 nM.

As to `CN(C)CCC(=O)NCc1cc(-c2nn(CCCN3CCC(N4CCCC4=O)CC3)c3c2CN(S(C)(=O)=O)CC3)ccc1C(F)(F)F` [Example 181, 3-Dimethylamino-N-[5-(5-methanesulfonyl-1-{3-[4-(2-oxo-pyrrolidin-1-yl)-piperidin-1-yl]-propyl}-4,5,6,7-tetrahydro-1H-pyrazolo[4,3-c]pyridin-3-yl)-2-trifluoromethyl-benzyl]-propionamide], under setting [1], the IC50 worked out at 1520 nM.

As to `CS(=O)(=O)N1CCc2c(c(-c3ccc(C(F)(F)F)c(CNC(=O)CN4CCCC4=O)c3)nn2CCCN2CCC(N3CCCC3=O)CC2)C1` [Example 182, N-[5-(5-Methanesulfonyl-1-{3-[4-(2-oxo-pyrrolidin-1-yl)-piperidin-1-yl]-propyl}-4,5,6,7-tetrahydro-1H-pyrazolo[4,3-c]pyridin-3-yl)-2-trifluoromethyl-benzyl]-2-(2-oxo-pyrrolidin-1-yl)-acetamide], under setting [1], the half-maximal inhibitory concentration (IC50) was 900 nM.

Broadly, the IC50 is the midpoint of a concentration-inhibition curve.
